How the values were obtained:
[1] = Edotecarin plasma pharmacokinetics in cancer patients after 1-h IV infusion; format: in vivo, human; details: for AUC (0-inf) / AUC (0–24): 6 mg/m^2 dose only; for AUC (0-inf) / AUC (0–24) / CL (total body-clearance) / T (terminal half-life) / Vss / Dose normalized AUC (0-inf) / Dose normalized AUC (0–24) / Dose normalized Cmax / half-life / Tmax: mean ± SD; for Dose normalized AUC (0-inf) / Dose normalized AUC (0–24) / Dose normalized Cmax: normalized to a 1 mg/m^2 dose; for half-life / Tmax: human, plasma, intravenous; for half-life: T (terminal half-life)
[2] = system: HCT-116 colon, SCC-25 tongue, A427 NSCL and J82 human carcinoma cell lines; details: variety of cell lines (e.g. colon, non-small cell, lung, tongue and bladder); cited from earlier work
[3] = system: patients with solid tumors; details: single agent, cited from earlier work
[4] = system: irinotecan-naïve patients with CRC; details: single agent 13 mg/m^2, cited from earlier work
[5] = system: patients with advanced/metastatic solid tumors
[6] = system: topoisomerase I (Topo I); details: cited from earlier work
[7] = system: liver micrometastases; details: mice; cited from earlier work
[8] = system: advanced/metastatic solid tumors; assay: Tumor response by Response Evaluation Criteria in Solid Tumors; format: in vivo, human; details: 14 treated patients, edotecarin/5-FU/LV
[9] = system: P450; details: cited from earlier work
[10] = system: cells that have acquired resistance related to P-glycoprotein; details: cited from earlier work
[11] = system: human CRC model (HCT-116); details: no added toxicity; cited from earlier work
[12] = 5-FU plasma concentration at steady state during 46-h infusion; format: in vivo, human; details: cycle 2; 2400 mg/m^2 46-h continuous infusion
[13] = all 14 patients, all cycles, edotecarin with 5-FU/LV

## O=C1c2c(c3c4ccc(O)cc4n([C@@H]4O[C@H](CO)[C@@H](O)[C@H](O)[C@H]4O)c3c3[nH]c4cc(O)ccc4c23)C(=O)N1NC(CO)CO [Edotecarin, 6–N-(1-hydroxymethyla-2-hydroxyl) ethylamino-12,13-dihydro-13-(beta-D-glucopyranosyl)-5Hindolo(2,3-a)-pyrrolo(3,4-c)-carbazole-5,7(6H)-dione]
[1]; cycle 1
  AUC (0-inf): 124.5 ± 34.7 ng/h/mL
  AUC (0–24): 91.0 ± 21.6 ng/h/mL
  CL (total body-clearance): 51.3 ± 12.4 l/h/m^2
  T (terminal half-life): 25.3 ± 6.4 h
  Vss: 884.4 ± 296.0 l/m^2
  Dose normalized AUC (0-inf): 20.7 ± 5.4 ng/h/mL
  Dose normalized AUC (0–24): 15.3 ± 3.6 h/ng/mL
  Dose normalized Cmax: 13.2 ± 2.9 ng/mL
  half-life: ~25 h
  Tmax: 0.48 ± 0.22 h
[1]; cycle 2
  AUC (0-inf): 91.7 ± 31.9 ng/h/mL
  AUC (0–24): 65.3 ± 22.9 ng/h/mL
  CL (total body-clearance): 73.3± 29.7 l/h/m^2
  T (terminal half-life): 20.3 ± 4.2 h
  Vss: 1408.7± 999.7 l/m^2
  Dose normalized AUC (0-inf): 15.4 ± 5.1 ng/h/mL
  Dose normalized AUC (0–24): 11.1 ± 3.7 h/ng/mL
  Dose normalized Cmax: 10.1 ± 4.4 ng/mL
  half-life: ~20 h
  Tmax: 0.83 h
[1]; very rapid initial decline then much slower reduction in plasma concentrations
  disposition after completion of the IV administration: bi-exponential disposition
[2]
  effect of the combination of edotecarin with 5-FU: additive effect
[3]; 3-week schedule with 1 week permitted for recovery
  recommended dose for phase II studies: 13 mg/m^2
[3]; once every 21 days, ref Hurwitz et al. [8]
  recommended phase II dose: 13 mg/m^2
[4]; 24 patients, 13 patients
  patients with stable disease (including four minor responses): 57%
[4]; 24 patients, three patients
  patients with partial response: 13%
[4]
  median time to tumor progression: 7.1 months
[4]; one patient
  patients with grade 3/4 febrile neutropenia: 4.2%
[5]; 6 mg/m^2 edotecarin cohort without 5-FU bolus, expanded to five patients
  patients with DLT (grade 3 neutropenia not recovered to grade 1 by day 21): one patient
[5]; 8 mg/m^2 edotecarin cohort, no 5-FU bolus, two of the three patients
  patients with grade 4 neutropenia (DLT): 66%
[5]; 14 patients
  deaths within 30 days of the last treatment dose: No patients died
[5]; 14 patients, 90 cycles
  patients discontinued from the study because of adverse events (neutropenia): four patients
  patients with dose reductions because of AEs (neutropenia): three patients
[5]; 14 patients, 90 cycles, two treatment-related, two unrelated
  patients with serious adverse events: four patients
[5]; [13]
  patients with fatigue (AE overall): 64%
  patients with neutropenia (AE overall): 57%
  patients with pyrexia (AE overall): 50%
  patients with vomiting (AE overall): 42%
[5]; all 14 patients, cycle 1
  patients with fatigue during cycle 1: 35%
  patients with nausea during cycle 1: 50%
  patients with neutropenia during cycle 1: 50%
[5]; edotecarin with 5-FU/LV
  changes in clinical laboratory parameters, vital signs measurements, or ECG results: No clinically important treatment-related changes
[5]; edotecarin with 5-FU/LV, in general
  gastrointestinal toxicities, especially diarrhea: minimal
[5]; edotecarin with infusional 5-FU/LV every 2 weeks, only 6 and 8 mg/m^2 explored
  maximum tolerated dose: no maximum tolerated dose was declared
[6]; at different DNA sequences
  induction of single-strand DNA cleavage: more effectively than NB-506 or camptothecin
[6]
  stability of induced DNA-Topo I complexes: more stable than those occurring after exposure to camptothecin or NB-506
[7]
  inhibition of proliferation of liver micrometastases: highly effective
[8]
  patients with progressive disease as best overall response: six patients
  patients with stable disease as best overall response: seven patients
[8]; patient with HCC, confirmed by cycle 5
  patients with complete response as best overall response: one patient
[9]
  formation of active metabolites: does not form any active metabolites
  substrate for in vitro P450-mediated metabolism: is not a substrate
[10]
  activity on P-glycoprotein-related resistant cells: effective
[11]
  efficacy in combination with 5-FU (concurrent treatment): efficacy superior in combination than with the drugs as single agents

## O=c1[nH]cc(F)c(=O)[nH]1 [5-FU, 5-fluorouracil]
[12]
  average concentration obtained at steady state: 455.9 ± 222.8 ng/mL
